Results reported in patent US5612480A, “2-chloro and 2-bromo derivatives of 1,5-iminosugars” (priority 1995, dated 1997).
Values after ≈ are worked out from the molar mass of the structure shown. Read-outs that look alike come from different tables or passages of the source.

Tests used:
[1] = tested on: visna virus; assay: Inhibition of visna virus growth, plaque reduction assay in sheep choroid plexus (SCP) cells (Method A); assay type: cell-based
Description: Inhibitory activity against visna virus was shown by a conventional plaque reduction assay. Visna virus, a lentivirus genetically very similar to the AIDS virus, is pathogenic for sheep and goats. See Sonigo et al., Cell 42, 369-382 (1985); Haase, Nature 322, 130-136 (1986). Inhibition of visna virus replication in vitro as a useful model for HIV and its inhibition by test compounds has been described by Frank et al., Antimicrobial Agents and Chemotherapy 31 (9), 1369-1374 (1987).
(§1) Various illustrative compounds synthesized above were tested for inhibition of visna virus in vitro in a plaque reduction assay (Method A) or for inhibition of HIV-1 in a test which measured reduction of cyto-pathogenic effect in virus-infected syncytium-sensitive Leu-3a-positive CEM cells grown in tissue culture (Method B) as follows:
Sheep choroid plexus (SCP) cells were obtained from American Type Culture Collection (ATCC) catalogue number CRL 1700 and were routinely passaged in vitro in Dulbecco's Modified Eagles (DME) medium supplemented with 20% fetal bovine serum (FBS). SCP cells were passaged once per week at a 1:2 or 1:3 split ratio. Visna was titrated by plaque assay in six-well plates. Virus pools were stored at -70° C.
SCP cells were cultured in 6-well plates to confluence. Wells were washed two times with serum free Minimal Essential Medium (MEM) to remove FBS. 0.2 ml of virus was added per well in MEM supplemented with 4 mM glutamine and gentamycin. After 1 hour adsorption, the virus was aspirated from each well. The appropriate concentration of each compound in 5 ml of Medium 199 (M-199) supplemented with 2% lamb serum, 4 mM glutamine, 0.5% agarose and gentamycin was added to each well. Cultures were incubated at 37° C. in a humidified 5% CO2 incubator for 3-4 weeks. To terminate the test, cultures were fixed in 10% formalin, the agar removed, the monolayers stained with 1% crystal violet and plaques counted. Each compound concentration was run in triplicate. […] 0 is no toxicity observed while 4 is total lysing of the cell monolayer. […]
Control wells without virus were completed to determine the toxicity of compounds.

[2] = tested on: β-Glucosidase (almond); assay: Beta-glucosidase (almond) inhibitor assay, pH 4.8; assay type: biochemical
Protocol: (§2) Yeast alpha-glucosidase and almond beta-glucosidase activities were measured by a modification of the method of Evans, et al., Phytochemistry 22, 768-770 (1983). The modifications included (1) assay of activities at pH 7.4 in HEPES (N-2-hydroxyethylpiperazine-N'-2-ethanesulfonic acid) buffer, 2) measurement in 96 well microtiter plates and (3) inclusion of 10% DMSO in control and test samples.
(§3) The release of p-nitrophenol from the substrate p-nitrophenylglycoside was measured spectrophotometrically in the presence and absence of test compound. Each assay included a known inhibitor of the enzyme as a standard. IC50 values were determined for compounds which inhibited the enzymes more than 50% at a 1 millimolar concentration.
To 100 μl 50 mM sodium citrate buffer, pH 4.8, in a microtiter plate, add 15 μl test compound in DMSO (DMSO alone in control), 20 μl (0.017 units) beta-glucosidase (Sigma) in citrate buffer and pre-incubate at room temperature for 15 minutes. Add 25 μl 2.50 mM p-nitrophenyl-beta-D-glucopyranoside in citrate buffer, as substrate. Incubate at room temperature 20 minutes (reaction is linear for at least 30 minutes). Add 50 μl 0.4 M NaOH. Read absorption change at 405 nm in a Biotek EIA Autoreader. Each sample was tested in triplicate. IC50 values were determined from the linear portion of the log concentration vs % inhibition curve obtained from a minimum of 3 points. Castanospermine was used as standard inhibitor.

[3] = tested on: β-Glucosidase (almond); assay: Beta-glucosidase (almond) inhibition assay, pH 7.4; assay type: biochemical
Protocol: as §2, §3
(§4) To 100 μl 50 mM HEPES buffer, pH 7.4, in a microtiter plate, add 20 μl test compound in DMSO (DMSO alone in control), 40 μl (0.136 units) beta-glucosidase (Sigma) in HEPES buffer and pre-incubate at room temperature for 15 minutes. Add 40 μl 1.25 mM p-nitrophenyl-beta-D-glucopyranoside in HEPES buffer, as substrate and monitor absorbance change at 405 nm in a Biotek EIA Autoreader. Absorption change was measured at 15 to 25 minutes (reaction is linear for at least 30 minutes). Each sample was tested in triplicate. IC50 values were determined from the linear portion of the log concentration vs % inhibition curve obtained from a minimum of 3 points. Castanospermine was used as standard inhibitor.

[4] = target: T1, α-Glucosidase (yeast) (Saccharomyces cerevisiae, UniProt P53341); assay: Alpha-glucosidase (yeast) inhibition assay, pH 7.4; assay type: biochemical
T1 construct: purchased Sigma
T1 sequence (P53341 whole entry): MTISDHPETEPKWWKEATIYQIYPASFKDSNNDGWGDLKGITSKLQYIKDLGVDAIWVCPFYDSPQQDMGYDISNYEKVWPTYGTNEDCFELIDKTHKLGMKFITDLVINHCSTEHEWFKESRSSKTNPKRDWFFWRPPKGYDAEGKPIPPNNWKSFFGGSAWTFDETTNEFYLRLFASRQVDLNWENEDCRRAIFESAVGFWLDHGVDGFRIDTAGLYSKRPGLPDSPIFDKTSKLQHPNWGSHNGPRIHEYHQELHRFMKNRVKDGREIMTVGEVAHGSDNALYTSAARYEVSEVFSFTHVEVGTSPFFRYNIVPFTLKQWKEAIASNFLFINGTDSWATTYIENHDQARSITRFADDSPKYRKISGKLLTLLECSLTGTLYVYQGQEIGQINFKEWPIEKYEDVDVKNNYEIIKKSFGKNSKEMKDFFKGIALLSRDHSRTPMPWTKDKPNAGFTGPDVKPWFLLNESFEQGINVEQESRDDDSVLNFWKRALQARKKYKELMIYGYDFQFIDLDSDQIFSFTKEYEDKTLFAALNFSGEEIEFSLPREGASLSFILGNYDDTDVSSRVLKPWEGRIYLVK
Protocol: as §2, §3
as §4, with “(0.013” for “(0.136”, “yeast alpha-glucosidase” for “beta-glucosidase”, “p-nitrophenyl-alpha-D-glucopyranoside (Sigma)” for “p-nitrophenyl-beta-D-glucopyranoside”, “substrate,” for “substrate”, “was” for “is”, “Deoxynojirimycin” for “Castanospermine”

[5] = tested on: HIV-1; assay: Anti-HIV activity: inhibition of HIV-1 induced cytopathic effect in CEM cells, MTT (Method B); assay type: cell-based, strain HTVL-IIIB; conditions: Human immunodeficiency virus 1, CCRF-CEM, CEM cells, Table 2
Protocol: Inhibitory activity against HIV-1 was shown by tests involving plating of susceptible human host cells which are syncytium-sensitive with and without virus in microculture plates, adding various concentrations of the test compound, incubating the plates for 7 to 9 days (during which time infected, non-drug treated control cells are largely or totally destroyed by the virus), and then determining the remaining number of viable cells with a colorometric endpoint.
as §1
Tissue culture plates were incubated at 37° C. in a humidified, 5% CO2 atmosphere and observed microscopically for toxicity and/or cytopathogenic effect (CPE). At 1 hour prior to infection each test article was prepared from the frozen stock, and a 20 μl volume of each dilution (prepared as a 10 X concentration) was added to the appropriate wells of both infected and uninfected cells.
Assays were done in 96-well tissue culture plates. CEM cells were treated with polybrene at a concentration of 2 μg/ml, and an 80 μl volume of cells (1×10^4 cells) was dispensed into each well. A 100 μl volume of each test article dilution (prepared as a 2 X concentration) was added to 5 wells of cells, and the cells were incubated at 37° C. for 1 hour. A frozen culture of HIV-1, strain HTVL-IIIB, was diluted in culture medium to a concentration of 5×10^4 TCID50 per ml, and a 20 μl volume (containing 10^3 TCID50 of virus) was added to 3 of the wells for each test article concentration. […] A 20 μl volume of normal culture medium was added to the remaining wells to allow evaluation of cytotoxicity. Each plate contained 6 wells of untreated, uninfected, cell control samples and 6 wells of untreated, infected, virus control samples.
On the 9th day post-infection, the cells in each well were resuspended and a 100 μl sample of each cell suspension was removed for use in an MTT assay. A 20 μl volume of a 5 mg/ml solution of 3-(4,5-dimethylthiazol-2-yl)-2,5-diphenyltetrazolium bromide (MTT) was added to each 100 μl cell suspension, and the cells were incubated at 37° C. in 5% CO2 for 4 hours. […] A 100 μl volume of a solution of 10% sodium dodecyl sulfate in 0.01 N hydrochloric acid was added to each sample, and the samples were incubated overnight. The absorbance at 590 nm was determined for each sample using a Molecular Devices Vmax microplate reader. This assay detects drug-induced suppression of viral CPE, as well as drug cytotoxicity, by measuring the generation of MTT-formazan by surviving cells.

[6] = pH 7.4, read-out: Percent inhibition of α-glucosidase (yeast)
[7] = 100 μM, pH 7.4, read-out: Percent inhibition of α-glucosidase (yeast)
[8] = 1000 μM, pH 7.4, read-out: Percent inhibition of α-glucosidase (yeast)

## CCCCCCCCCN1C[C@H](Cl)[C@@H](O)[C@H](O)[C@H]1CO [Example 29, 2-Chloro-1,2,5-trideoxy-1,5-(nonylimino)-D-glucitol]
[1]; 0.001 mM
  % inhibition of visna virus growth: 23%
[1]; 0.01 mM
  % inhibition of visna virus growth: 53%
[1]; 0.1 mM
  % inhibition of visna virus growth: 100%
[2]; 100 μM
  Percent inhibition of β-glucosidase (almond): 33.1%
[2]; 1000 μM
  Percent inhibition of β-glucosidase (almond): 52.8%
[3]; 100 μM
  Percent inhibition of β-glucosidase (almond): 54.7%
[3]; 1000 μM
  Percent inhibition of β-glucosidase (almond): 91.9%
[4]; [6]
  inhibition at 1 µM: 11.5%
  inhibition at 10 µM: 61.5%
  inhibition at 100 µM: 91.8%
  inhibition at 1000 µM: 102%

## OC[C@@H]1[C@@H](O)[C@H](O)[C@@H](Cl)CN1CCCc1ccccc1 [Example 30, 2-Chloro-1,2,5-trideoxy-1,5-(3-phenyl)propylimino-D-glucitol]
[1]; 0.001 mM
  % inhibition of visna virus growth: 20%
[1]; 0.01 mM
  % inhibition of visna virus growth: 57%
[1]; 0.1 mM
  % inhibition of visna virus growth: 97%
[1]; 1.0 mM
  % inhibition of visna virus growth: 100%
[2]; 100 μM
  Percent inhibition of β-glucosidase (almond): 47.6%
[2]; 1000 μM
  Percent inhibition of β-glucosidase (almond): 84.7%
[3]; 100 μM
  Percent inhibition of β-glucosidase (almond): 66.2%
[3]; 1000 μM
  Percent inhibition of β-glucosidase (almond): 92.5%
[4]; [6]
  inhibition at 1 µM: 4.6%
  inhibition at 10 µM: 46.4%
  inhibition at 100 µM: 87.3%
  inhibition at 1000 µM: 97.5%

## CCCCNC(=O)O[C@H]1CN(CCCC)[C@H](CO)[C@@H](O)[C@@H]1O [Example 36]
[1]; Visna-maedi virus, 1.0 mM
  inhibition at 1000 µM: 21%
[2]; 100 μM
  Percent inhibition of β-glucosidase (almond): 4.3%
[2]; 1000 μM
  Percent inhibition of β-glucosidase (almond): 3.1%
[3]; 100 μM
  Percent inhibition of β-glucosidase (almond): -2.4%
[3]; 1000 μM
  Percent inhibition of β-glucosidase (almond): 0.3%
[4]; [7]
  inhibition at 100 µM: 11%
[4]; [8]
  inhibition at 1000 µM: -6.8%

## CCCCN1[C@H](CO)[C@@H](O)[C@H](O)[C@H]1CN=[N+]=[N-] [Example 47, 1-Azido-2,5-(butylimino)-1,2,5-trideoxy-D-mannitol]
[5]; 500 μg/mL, read-out: Anti-HIV activity, % inhibition of virus induced cytopathic effect
  inhibition at 500 µg/mL: 36%
[2]; 100 μM
  Percent inhibition of β-glucosidase (almond): 11.2%
[2]; 1000 μM
  Percent inhibition of β-glucosidase (almond): 32.6%
[3]; 100 μM
  Percent inhibition of β-glucosidase (almond): -4.1%
[3]; 1000 μM
  Percent inhibition of β-glucosidase (almond): 6.7%
[4]; [7]
  inhibition at 100 µM: 22.7%
[4]; [8]
  inhibition at 1000 µM: 24.8%

## CCCCCCN1C[C@H](Cl)[C@@H](O)[C@H](O)[C@H]1CO [Example 28, 2-Chloro-1,2,5-trideoxy-1,5(hexylimino)-D-glucitol]
[5]; read-out: Anti-HIV activity, inhibition of virus induced cytopathic effect, EC50
  EC50: 11 µg/mL (≈ 41.4 µM)
[1]; 0.001 mM
  % inhibition of visna virus growth: 6%
[1]; 0.01 mM
  % inhibition of visna virus growth: 61%
[1]; 0.1 mM
  % inhibition of visna virus growth: 100%
[1]; 1.0 mM
  % inhibition of visna virus growth: 100%
[2]; 100 μM
  Percent inhibition of β-glucosidase (almond): 43.7%
[2]; 1000 μM
  Percent inhibition of β-glucosidase (almond): 84%
[3]; 100 μM
  Percent inhibition of β-glucosidase (almond): 62.9%
[3]; 1000 μM
  Percent inhibition of β-glucosidase (almond): 90%
[4]; [6]
  inhibition at 1 µM: 4%
  inhibition at 10 µM: 37.6%
  inhibition at 100 µM: 82.9%
  inhibition at 1000 µM: 95.5%
